# Numbers after ± are expanded uncertainties.
# Experiments:
# [1] = molar heat capacity at constant pressure; conditions: 298 K; 101.33 kPa; Liquid; Vacuum adiabatic calorimetry
# [2] = Molar enthalpy of transition or fusion; conditions: Crystal 1; Adiabatic calorimetry
# [3] = Crystal 1; Adiabatic calorimetry
smiles,measurement,setting,value
CCCCn1cc[n+](C)c1.[I-] [1-butyl-3-methylimidazolium iodide],molar heat capacity at constant pressure,[1],310 ± 2.4 J/K/mol
same,Molar enthalpy of transition or fusion,[2],4.54 ± 0.0478 kcal/mol
same,Triple point temperature,[3],291.87 ± 0.05 K

# Reference: the NIST ThermoML archive (doi:10.1016/j.jct.2010.05.007)
